# Source: ChEMBL document CHEMBL1201862, “PubChem BioAssay data set” (2004)
#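 Five concentrations, 48 hours, 96-well plates. GI50 is the concentration that inhibits growth by half.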 Active and inactive are the calls of the source. Rule as the data show it: active = GI50 up to about 1.1 µM and inactive = higher.
# Columns and labels:
# Experiment in all cases: NCI anticancer screen, dose series, 48 h
# [1] = tested on: 786-0
# [2] = tested on: A498
# [3] = tested on: A549
# [4] = tested on: ACHN
# [5] = tested on: CCRF-CEM
# [6] = tested on: COLO 205
# [7] = tested on: DLD-1
# [8] = tested on: DMS-114
# [9] = tested on: DMS-273
# [10] = tested on: EKVX
# [11] = tested on: HCC 2998
# [12] = tested on: HCT-15
# [13] = tested on: HL-60
# [14] = tested on: HOP-62
# [15] = tested on: HT-29
# [16] = tested on: IGROV-1
# [17] = tested on: K562
# [18] = tested on: KM-20L2
# [19] = tested on: KM12
# [20] = tested on: LOX IMVI
# [21] = tested on: LXFL 529
# [22] = tested on: M14
# [23] = tested on: M19-MEL
# [24] = tested on: MOLT-4
# [25] = tested on: Malme-3M
# [26] = tested on: NCI-H226
# [27] = tested on: NCI-H23
# [28] = tested on: NCI-H460
# [29] = tested on: NCI-H522
# [30] = tested on: OVCAR-3
# [31] = tested on: OVCAR-4
# [32] = tested on: OVCAR-5
# [33] = tested on: OVCAR-8
# [34] = tested on: RPMI-8226
# [35] = tested on: RXF 393
# [36] = tested on: RXF 631
# [37] = tested on: SF-268
# [38] = tested on: SF-295
# [39] = tested on: SF-539
# [40] = tested on: SK-MEL-28
# [41] = tested on: SK-MEL-2
# [42] = tested on: SK-MEL-5
# [43] = tested on: SK-OV-3
# [44] = tested on: SN12C
# [45] = tested on: SNB-19
# [46] = tested on: SNB-75
# [47] = tested on: SNB-78
# [48] = tested on: SR
# [49] = tested on: SW-620
# [50] = tested on: TK-10
# [51] = tested on: U-251
# [52] = tested on: UACC-257
# [53] = tested on: UACC-62
# [54] = tested on: UO-31
# [55] = tested on: XF498
# [56] = tested on: CAKI-1
# [57] = tested on: HCT-116
# [58] = tested on: HOP-18
# [59] = tested on: HOP-92
structure (smiles),measurement,setting,value
COc1ccc(OC(C)C(=O)O)c2c(=O)ccccc12 (configuration not stated),GI50,[1],> 100 µM (inactive)
same,GI50,[2],> 100 µM (inactive)
same,GI50,[3],> 100 µM (inactive)
same,GI50,[4],> 100 µM (inactive)
same,GI50,[5],> 100 µM (inactive)
same,GI50,[6],> 100 µM (inactive)
same,GI50,[7],> 100 µM (inactive)
same,GI50,[8],> 100 µM (inactive)
same,GI50,[9],> 100 µM (inactive)
same,GI50,[10],> 100 µM (inactive)
same,GI50,[11],> 100 µM (inactive)
same,GI50,[12],> 100 µM
same,GI50,[13],> 100 µM (inactive)
same,GI50,[14],> 100 µM (inactive)
same,GI50,[15],> 100 µM (inactive)
same,GI50,[16],> 100 µM (inactive)
same,GI50,[17],> 100 µM (inactive)
same,GI50,[18],> 100 µM (inactive)
same,GI50,[19],> 100 µM (inactive)
same,GI50,[20],> 100 µM (inactive)
same,GI50,[21],> 100 µM (inactive)
same,GI50,[22],> 100 µM (inactive)
same,GI50,[23],> 100 µM (inactive)
same,GI50,[24],> 100 µM (inactive)
same,GI50,[25],> 100 µM (inactive)
same,GI50,[26],> 100 µM (inactive)
same,GI50,[27],> 100 µM (inactive)
same,GI50,[28],> 100 µM (inactive)
same,GI50,[29],> 100 µM (inactive)
same,GI50,[30],> 100 µM (inactive)
same,GI50,[31],> 100 µM (inactive)
same,GI50,[32],> 100 µM (inactive)
same,GI50,[33],> 100 µM (inactive)
same,GI50,[34],> 100 µM (inactive)
same,GI50,[35],> 100 µM (inactive)
same,GI50,[36],> 100 µM (inactive)
same,GI50,[37],> 100 µM (inactive)
same,GI50,[38],> 100 µM (inactive)
same,GI50,[39],> 100 µM (inactive)
same,GI50,[40],> 100 µM (inactive)
same,GI50,[41],> 100 µM (inactive)
same,GI50,[42],> 100 µM (inactive)
same,GI50,[43],> 100 µM (inactive)
same,GI50,[44],> 100 µM (inactive)
same,GI50,[45],> 100 µM (inactive)
same,GI50,[46],> 100 µM (inactive)
same,GI50,[47],> 100 µM (inactive)
same,GI50,[48],> 100 µM (inactive)
same,GI50,[49],> 100 µM (inactive)
same,GI50,[50],> 100 µM (inactive)
same,GI50,[51],> 100 µM (inactive)
same,GI50,[52],> 100 µM (inactive)
same,GI50,[53],> 100 µM (inactive)
same,GI50,[54],> 100 µM (inactive)
same,GI50,[55],> 100 µM (inactive)
Nc1ccn(CCOC(=O)c2ccccc2)c(=O)n1,GI50,[1],> 100 µM (inactive)
same,GI50,[2],> 100 µM (inactive)
same,GI50,[3],> 100 µM (inactive)
same,GI50,[4],> 100 µM (inactive)
same,GI50,[56],> 100 µM (inactive)
same,GI50,[5],> 100 µM (inactive)
same,GI50,[6],> 100 µM (inactive)
same,GI50,[7],> 100 µM (inactive)
same,GI50,[9],> 100 µM (inactive)
same,GI50,[10],> 100 µM (inactive)
same,GI50,[57],> 100 µM (inactive)
same,GI50,[12],> 100 µM
same,GI50,[13],> 100 µM (inactive)
same,GI50,[58],> 100 µM (inactive)
same,GI50,[14],> 100 µM (inactive)
same,GI50,[59],> 100 µM (inactive)
same,GI50,[15],> 100 µM (inactive)
same,GI50,[16],> 100 µM (inactive)
same,GI50,[17],> 100 µM (inactive)
same,GI50,[18],> 100 µM (inactive)
same,GI50,[19],> 100 µM (inactive)
same,GI50,[20],> 100 µM (inactive)
same,GI50,[21],> 100 µM (inactive)
same,GI50,[22],> 100 µM (inactive)
same,GI50,[25],> 100 µM (inactive)
same,GI50,[26],> 100 µM (inactive)
same,GI50,[28],> 100 µM (inactive)
same,GI50,[29],> 100 µM (inactive)
same,GI50,[30],> 100 µM (inactive)
same,GI50,[31],> 100 µM (inactive)
same,GI50,[32],> 100 µM (inactive)
same,GI50,[33],> 100 µM (inactive)
same,GI50,[34],> 100 µM (inactive)
same,GI50,[35],> 100 µM (inactive)
same,GI50,[36],> 100 µM (inactive)
same,GI50,[37],> 100 µM (inactive)
same,GI50,[38],> 100 µM (inactive)
same,GI50,[39],> 100 µM (inactive)
same,GI50,[40],> 100 µM (inactive)
same,GI50,[41],> 100 µM (inactive)
same,GI50,[42],> 100 µM (inactive)
same,GI50,[43],> 100 µM (inactive)
same,GI50,[44],> 100 µM (inactive)
same,GI50,[46],> 100 µM (inactive)
same,GI50,[47],> 100 µM (inactive)
same,GI50,[49],> 100 µM (inactive)
same,GI50,[50],> 100 µM (inactive)
same,GI50,[51],> 100 µM (inactive)
same,GI50,[52],> 100 µM (inactive)
same,GI50,[53],> 100 µM (inactive)
same,GI50,[54],> 100 µM (inactive)
CC1CC(=O)Nc2ccccc2N1C(=O)CN1CCC(CCCCN(C)C)CC1 (configuration not stated),GI50,[1],> 100 µM (inactive)
same,GI50,[2],> 100 µM (inactive)
same,GI50,[3],> 100 µM (inactive)
same,GI50,[4],> 100 µM (inactive)
same,GI50,[56],> 100 µM (inactive)
same,GI50,[5],> 100 µM (inactive)
same,GI50,[6],> 100 µM (inactive)
same,GI50,[7],> 100 µM (inactive)
same,GI50,[8],> 100 µM (inactive)
same,GI50,[9],> 100 µM (inactive)
same,GI50,[10],> 100 µM (inactive)
same,GI50,[11],> 100 µM (inactive)
same,GI50,[57],> 100 µM (inactive)
same,GI50,[12],> 100 µM
same,GI50,[13],> 100 µM (inactive)
same,GI50,[58],> 100 µM (inactive)
same,GI50,[14],> 100 µM (inactive)
same,GI50,[15],> 100 µM (inactive)
same,GI50,[16],> 100 µM (inactive)
same,GI50,[17],> 100 µM (inactive)
same,GI50,[18],> 100 µM (inactive)
same,GI50,[19],> 100 µM (inactive)
same,GI50,[20],> 100 µM (inactive)
same,GI50,[21],> 100 µM (inactive)
same,GI50,[22],> 100 µM (inactive)
same,GI50,[23],> 100 µM (inactive)
same,GI50,[24],> 100 µM (inactive)
same,GI50,[25],> 100 µM (inactive)
same,GI50,[26],> 100 µM (inactive)
same,GI50,[27],> 100 µM (inactive)
same,GI50,[28],> 100 µM (inactive)
same,GI50,[29],> 100 µM (inactive)
same,GI50,[30],> 100 µM (inactive)
same,GI50,[31],> 100 µM (inactive)
same,GI50,[32],> 100 µM (inactive)
same,GI50,[33],> 100 µM (inactive)
same,GI50,[34],> 100 µM (inactive)
same,GI50,[35],> 100 µM (inactive)
same,GI50,[36],> 100 µM (inactive)
same,GI50,[37],> 100 µM (inactive)
same,GI50,[38],> 100 µM (inactive)
same,GI50,[39],> 100 µM (inactive)
same,GI50,[40],> 100 µM (inactive)
same,GI50,[41],> 100 µM (inactive)
same,GI50,[42],> 100 µM (inactive)
same,GI50,[44],> 100 µM (inactive)
same,GI50,[45],> 100 µM (inactive)
same,GI50,[46],> 100 µM (inactive)
same,GI50,[47],> 100 µM (inactive)
same,GI50,[48],> 100 µM (inactive)
same,GI50,[49],> 100 µM (inactive)
same,GI50,[50],> 100 µM (inactive)
same,GI50,[51],> 100 µM (inactive)
same,GI50,[52],> 100 µM (inactive)
same,GI50,[53],> 100 µM (inactive)
same,GI50,[54],> 100 µM (inactive)
